Data from US20240390490A1, “PHARMACEUTICAL COMPOSITIONS FOR THE TREATMENT OF CANCERS” (Rutgers, The State University of New Jersey, priority 2021, published 2024).
pIC50: −log10 of the molar value.

Assays:
[1] = system: MDA-MB-231, MDA-MB-468, and T47D cells; conditions: read-out: IC50 dose; range over cell lines and time of treatment (24, 48, 72 hours)
Description: Cells in media with vehicle treatment are considered control wells. MTT (3-(4,5-dimethyl-2-thiazolyl)-2,5-diphenyl-2H-tetrazolium bromide) was prepared as a stock solution of 5 mg/mL in 1× phosphate-buffered saline (PBS, pH 7.2). At the end of the drug treatment period (24 or 48 or 72 hours), 10 μL of MTT solution was added to each well. After incubation for 4 hours at 37° C., 100 μL of solubilizing buffer (10% sodium dodecyl sulfate dissolved in 0.01 N HCl) was added to each well. After a 15-minute incubation at 37° C., the 96-well plate was read by a plate reader at 590 nm for absorbance density values to determine the cell viability. The cell viability (percentage of control) is calculated by using the following formula: (OD of treated well (−blank))/(mean OD control well (−blank))×100. […] Drug effects on these cells were determined in quadruplicate wells in three independent experiments.

[2] = cited from earlier work
[3] = system: MDA-MB-468 and T47D cells; assay: Cell cycle analysis (PI staining); assay type: cell-based, human; conditions: 100 μM
Description: Cell cycle analysis of breast cancer cells was carried out using propidium iodide (PI) staining protocol according to the manufacturer's instructions (Nexcelom Bioscience LLC, Lawrence, MA). […] Then, cells were harvested by trypsinization, centrifuged at 2000 rpm for 5 minutes, washed with PBS (pH 7.4), and fixed in ice cold 100% ethanol for 15 minutes. The cells were spun down and resuspended in 150 μl of PI-staining solution provided with the Cellometer PI Cell Cycle Kit. The PI-stained cells were then subjected to analysis in the Cellometer Vision instrument (Nexcelom Bioscience LLC) and the data was captured on Cellometer Vision CBA software (Nexcelom Bioscience LLC) and analyzed by FCS Express 4 software (Molecule Devices, Corp., Sunnyvale, CA). Differences in fluorescence intensity were used to determine the percentage of cells in each phase of the cell cycle and represented as histograms for control and drug-treated samples.

[4] = system: NK-92 MI cells; assay: Cytotoxic protein levels in human NK cells (Western blot); assay type: cell-based; conditions: 50 μM, 12 hours
Description: The human NK cell line NK-92 MI (ATCC) was maintained in alpha minimum essential medium (MEM) without ribonucleosides and deoxyribonucleosides (Gibco) supplemented with final concentrations of 12-5% FBS, 12-5% horse serum (ATCC), 2 mM L-glutamine (Gibco), 1.5 g/L sodium bicarbonate (Gibco), 0.2 mM inositol (Sigma), 0.1 mM 2-mercaptoethanol (Gibco), and 0.02 mM folic acid (Sigma).
For protein analyses, tumor tissues from in vivo experiments, enriched NK cells from the spleen, and NK-92 MI cancer cell co-incubated samples were lysed with a buffer containing protease and phosphatase inhibitors (25 mM Tris-HCl, pH 7.4; 150 mM NaCl; 1% Nonidet P-40; 1 mM EDTA; and 5% glycerol with Pierce Halt Protease Inhibitor). Protein (50 mg) from total lysate was loaded and separated on a 4-20% SDS-PAGE and transferred overnight to polyvinylidene difluoride membranes. Membranes were incubated with primary Ab for 12 hours at 4° C. in blocking buffer, 5% w/v nonfat dry milk in TBS, and 0.1% Tween 20. The following primary antibodies were purchased from Santa Cruz Biotechnology (Santa Cruz, CA): anti-perforin rabbit polyclonal (1:250), anti-granzyme B mouse monoclonal (1:200), anti-IFN-γ mouse monoclonal (1:250), anti-Snail (1:200), anti-Slug (1:200), and anti-Twist. Anti-E-cadherin (1:250), anti-N-cadherin (1:250), and anti-NKG2D goat polyclonal (1:500) were all from Abcam (Cambridge, MA). […]

[5] = system: YAC-1 target cells; assay: NK cell cytotoxicity of PBMC- and spleen-derived NK cells (calcein AM); assay type: in vivo, rat
Description: After the end of the drug treatment period, the spleen tissues from control and drug-treated rats were processed, and RBCs and granulocytes were removed from splenocyte suspensions by density centrifugation using Histopaque 1083 (Sigma-Aldrich) as previously described (8). Splenocytes (˜10×10^7 cells per spleen) were extracted from the middle layer, washed with RPMI-1640 (Gibco), and resuspended in buffer (PBS, 0.5% BSA). Splenocytes were incubated with primary Abs conjugated to FITC (BD Biosciences), anti-CD6 (OX52; T cells), anti-CD45RA (OX-33; mature B cells), and anti-RT1B (OX-6; dendritic cells and macrophages), followed by secondary incubation with anti-FITC microbeads, according to the manufacturer's instructions (Miltenyi Biotec). NK cells were then enriched by magnetic separation (negative selection) using an AutoMACS Magnetic Separator (Miltenyi Biotec). The enriched fraction consistently yielded ˜5×10^6 cells per spleen with a purity of ˜80-90%. […] The pelleted cells (PBMC) were counted in a hemocytometer and assayed for viability by trypan blue exclusion. […]
The cytotoxicity of enriched NK cells from PBMC and the spleen against NK-sensitive YAC-1 (ATCC) target cells was determined by calcein AM assays as previously described (8). […] All assays were analyzed and percent cytotoxicity for each sample was calculated as previously described (8).

`CC1(C)SSC(C)(C)[C@@H](NC(=O)[C@@H](N)Cc2ccc(O)cc2)C(=O)NCC(=O)N[C@@H](Cc2ccccc2)C(=O)N[C@H]1C(=O)O` [DPDPE, (D-Pen^2, D-Pen^5)-enkephalin] gave a pIC50 [1] of 3.85 to 3.94.
In the case of `O=C1CC[C@@]2(O)[C@H]3Cc4ccc(O)c5c4[C@@]2(CCN3CC2CC2)[C@H]1O5` [NTX, 17-(cyclopropylmethyl)-4,5α-epoxy-3,14-dihydroxymorphinan-6-one], the water solubility [2] is given as “not water soluble” and the “number of cells in the G0/G1 cycle” value [3] is given as “moderately but not significantly reduced”.
With `CC(C)NCC(O)COc1cccc2ccccc12` (stereo not drawn) [PRO, propranolol] the “granzyme B levels” value [4] was “moderately elevated”, the perforin levels [4] was “moderately elevated” and the “NK cell cytolytic activity” value [5] was “elevated”.
